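The concentration for 50% growth inhibition is given as GI50. The concentration for full growth arrest is given as TGI.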
Legend:
Assay in all cases: growth of human tumour cells (NCI), 384-well format
NCI/ADR-RES ovarian = system: NCI/ADR-RES ovarian
PC-3 prostate = system: PC-3 prostate
OVCAR-5 ovarian = system: OVCAR-5 ovarian
HL-60(TB) leukemia = system: HL-60(TB) leukemia
NCI-H23 lung = system: NCI-H23 lung
HCC-2998 colon = system: HCC-2998 colon
MOLT-4 leukemia = system: MOLT-4 leukemia
NCI-H460 NSCLC = system: NCI-H460 NSCLC
NCI-H522 lung = system: NCI-H522 lung
U251 glioblastoma = system: U251 glioblastoma
MALME-3M melanoma = system: MALME-3M melanoma
SNB-75 CNS = system: SNB-75 CNS
SF-295 CNS = system: SF-295 CNS
SK-MEL-5 melanoma = system: SK-MEL-5 melanoma
T-47D breast = system: T-47D breast
RXF 393 renal = system: RXF 393 renal
HS 578T breast = system: HS 578T breast
SNB-19 CNS = system: SNB-19 CNS
OVCAR-3 ovarian = system: OVCAR-3 ovarian
NCI-H226 lung = system: NCI-H226 lung
MDA-MB-231 breast = system: MDA-MB-231 breast
OVCAR-4 ovarian = system: OVCAR-4 ovarian
A498 renal = system: A498 renal
HOP-92 NSCLC = system: HOP-92 NSCLC
UACC-257 melanoma = system: UACC-257 melanoma
DU-145 prostate = system: DU-145 prostate
HOP-62 NSCLC = system: HOP-62 NSCLC
KM12 colon = system: KM12 colon
M14 melanoma = system: M14 melanoma

SMILES: Nc1ncnc2c1c(-c1cccc(OCc3ccccc3)c1)cn2C1CC(CN2CCC2)C1 (stereo not drawn)
- GI50 (NCI/ADR-RES ovarian): 1.76 µM
- TGI (NCI/ADR-RES ovarian): 3.42 µM
- GI50 (PC-3 prostate): 1.8 µM
- TGI (PC-3 prostate): 3.46 µM
- GI50 (OVCAR-5 ovarian): 1.3 µM
- TGI (OVCAR-5 ovarian): 2.86 µM
- GI50 (HL-60(TB) leukemia): 0.182 µM
- TGI (HL-60(TB) leukemia): 1.03 µM
- GI50 (NCI-H23 lung): 1.1 µM
- TGI (NCI-H23 lung): 2.49 µM
- GI50 (HCC-2998 colon): 1.4 µM
- TGI (HCC-2998 colon): 2.72 µM
- GI50 (MOLT-4 leukemia): 1.77 µM
- TGI (MOLT-4 leukemia): 3.16 µM
- GI50 (NCI-H460 NSCLC): 1.34 µM
- TGI (NCI-H460 NSCLC): 2.69 µM
- GI50 (NCI-H522 lung): 1.72 µM
- TGI (NCI-H522 lung): 3.12 µM
- GI50 (U251 glioblastoma): 1.87 µM
- TGI (U251 glioblastoma): 3.39 µM
- GI50 (MALME-3M melanoma): 1.06 µM
- TGI (MALME-3M melanoma): 2.25 µM
- GI50 (SNB-75 CNS): 1.92 µM
- TGI (SNB-75 CNS): 3.52 µM
- GI50 (SF-295 CNS): 1.89 µM
- TGI (SF-295 CNS): 3.31 µM
- GI50 (SK-MEL-5 melanoma): 0.704 µM
- TGI (SK-MEL-5 melanoma): 2 µM
- GI50 (T-47D breast): 1.49 µM
- TGI (T-47D breast): 2.9 µM
- GI50 (RXF 393 renal): 1.59 µM
- TGI (RXF 393 renal): 2.97 µM
- GI50 (HS 578T breast): 1.82 µM
- TGI (HS 578T breast): 3.23 µM
- GI50 (SNB-19 CNS): 2.53 µM
- TGI (SNB-19 CNS): 7.28 µM
- GI50 (OVCAR-3 ovarian): 1.76 µM
- TGI (OVCAR-3 ovarian): 3.45 µM
- GI50 (NCI-H226 lung): 1.19 µM
- TGI (NCI-H226 lung): 2.96 µM
- GI50 (MDA-MB-231 breast): 1.66 µM
- TGI (MDA-MB-231 breast): 3.34 µM
- GI50 (OVCAR-4 ovarian): 1.89 µM
- TGI (OVCAR-4 ovarian): 4.04 µM
- GI50 (A498 renal): 1.49 µM
- TGI (A498 renal): 2.83 µM
- GI50 (HOP-92 NSCLC): 1.14 µM
- TGI (HOP-92 NSCLC): 2.36 µM
- GI50 (UACC-257 melanoma): 1.13 µM
- TGI (UACC-257 melanoma): 2.35 µM
- GI50 (DU-145 prostate): 2.65 µM
- TGI (DU-145 prostate): 11 µM
- GI50 (HOP-62 NSCLC): 1.82 µM
- TGI (HOP-62 NSCLC): 3.25 µM
- GI50 (KM12 colon): 1.82 µM
- TGI (KM12 colon): 3.76 µM
- GI50 (M14 melanoma): 1.62 µM
- TGI (M14 melanoma): 2.98 µM
